Measurements as given in patent US20080004272A1, “Compositions and methods for modulating gated ion channels” (PainCeptor Pharma Corporation, priority 2006, published 2008).
Blank lines part the entries; values can stand above or below the molecule they belong to.

Experiments:
Format in all cases: cell-based
ASIC1a [1] = target: T1, ASIC1a (Homo sapiens, UniProt P78348); test: Calcium imaging of MES-induced calcium response (FlexStation, "Flex"); set-up: host or cells: HEK293; settings: ASIC1a expressing HEK293 cells; for inhibition at 40 µM: read-out: % inh. at 40 μM (Flex)
T1 sequence (P78348 1-528): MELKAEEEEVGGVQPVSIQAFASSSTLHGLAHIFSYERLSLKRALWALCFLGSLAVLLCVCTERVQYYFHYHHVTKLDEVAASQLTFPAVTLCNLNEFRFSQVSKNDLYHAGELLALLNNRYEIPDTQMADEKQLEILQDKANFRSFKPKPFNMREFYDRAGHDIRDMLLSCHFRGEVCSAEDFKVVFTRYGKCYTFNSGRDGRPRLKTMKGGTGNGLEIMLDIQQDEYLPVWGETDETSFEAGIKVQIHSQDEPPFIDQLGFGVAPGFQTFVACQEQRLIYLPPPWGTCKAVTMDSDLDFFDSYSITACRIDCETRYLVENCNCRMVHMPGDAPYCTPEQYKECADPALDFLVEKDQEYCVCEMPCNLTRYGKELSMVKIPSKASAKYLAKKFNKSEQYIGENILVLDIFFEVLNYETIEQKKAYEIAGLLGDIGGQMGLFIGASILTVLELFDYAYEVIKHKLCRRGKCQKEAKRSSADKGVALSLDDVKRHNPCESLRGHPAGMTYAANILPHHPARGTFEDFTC
Method: ASIC1a expressing HEK293 cells are grown in culture medium (DMEM with 10% FBS), in polystyrene culture flasks ([…]) at 37° C. in a humidified atmosphere of 5% CO2. Confluency of cells should be 80-90% on day of plating. Cells are rinsed with 10 ml of PBS and cells are re-suspended by addition of culture medium and trituration with a 25 ml pipette.
The cells are seeded at a density of approximately 1×10^6 cells/ml (100 μl/well) in black-walled, clear bottom, 96-well plates pre-treated with 10 mg/l poly-D-lysin (75 μl/well for ≧30 min). Plated cells are allowed to proliferate for 24 h before loading with dye.
Fluo-4/AM (1 mg, Molecular Probes) is dissolved in 912 μl DMSO. The Fluo-4/AM stock solution (1 mM) is diluted with culture medium to a final concentration of 2 μM (loading solution).
The culture medium is aspirated from the wells, and 50 μl of the Fluo-4/AM loading solution is added to each well. The cells are incubated at 37° C. for 30 min.
After the loading period, the loading solution is aspirated and the cells are washed twice with 100 μl modified Assay Buffer (145 mM NaCl, 5 mM KCl, 5 mM CaCl2, 1 mM MgCl2, 10 mM HEPES, pH 7.4) to remove extracellular dye. Following the second wash, 100 μl modified Assay Buffer is added to each well and the fluorescence is measured in FLIPR™ or FlexStation™ (Molecular Devices, USA), or any other suitable equipment known to the skilled in the art.
The MES-induced peak calcium response, in the presence of test substance, is expressed relatively to the MES response alone. Test substances that block the MES-induced calcium response are re-tested in triplicates. Confirmed hits are picked for further characterization by performing full dose-response curves to determine potency of each hit compound as represented by the IC50 values (i.e., the concentration of the test substance which inhibits 50% of the MES-induced calcium response).

ASIC1a [2] = target: T1, ASIC1a; test: Calcium imaging of MES-induced calcium response (FLIPR); set-up: host or cells: HEK293; settings: ASIC1a expressing HEK293 cells, MES-induced calcium response; read-out: IC50 (FLIPR)
ASIC1a [3] = target: T1, ASIC1a; test: Two-electrode voltage clamp in Xenopus laevis oocytes (Xo), acid-induced currents; set-up: expressed in transfected cells; host or cells: Xenopus laevis oocytes (nuclear microinjection of expression vector such as pcDNA3); settings: Xenopus oocytes; for inhibition at 50 µM: read-out: % inh. at 50 μM (Xo)
Summary of the method: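 Defolliculated oocytes were nuclear-injected with channel cDNA and expressed for 2–4 days at 19 °C. Under two-electrode voltage clamp at room temperature, oocytes were superfused with pH 7.4 Ringer, and currents were evoked by switching to acidic MES Ringer (pH<7). Compound was present in both control and acidic solutions.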

inhibition at 40 µM (ASIC1a [1]; 40 μM): 25 to 45%
Structure (SMILES): COc1ccc(F)cc1-c1ccc2c(c1)COC(=O)N2 [Compound 187, 6-(5-Fluoro-2-methoxy-phenyl)-1,4-dihydro-benzo[d][1,3]oxazin-2-one]

inhibition at 40 µM (ASIC1a [1]; 40 μM): < 25%
Structure (SMILES): CCOC(=O)Nc1ccc(-c2cc(F)ccc2OC)cc1CN(CC)CC [Compound 212]

inhibition at 40 µM (ASIC1a [1]; 40 μM): < 25%
Structure (SMILES): CCN(CC)Cc1cc(-c2cc(F)ccc2OC)cc2c1NC(=O)/C2=N/O [Compound 183, 7-Diethylaminomethyl-5-(5-fluoro-2-methoxy-phenyl)-1H-indole-2,3-dione 3-oxime]

IC50 (ASIC1a [1]): < 10 µM
Structure (SMILES): CCN1CCc2c(-c3cc(Cl)ccc3OC)cc3c(c2C1)NC(=O)/C3=N/O [Compound 219]

IC50 (ASIC1a [1]): < 10 µM
Structure (SMILES): CCOc1ccccc1-c1cc2c(c3c1CCN(CC)C3)NC(=O)/C2=N/O [Compound 221]

inhibition at 40 µM (ASIC1a [1]; 40 μM): < 25%
Structure (SMILES): CCN(CC)Cc1cc(-c2cc(F)ccc2OC)ccc1NC(=O)N1CCOCC1 [Compound 214]

inhibition at 40 µM (ASIC1a [1]; 40 μM): < 25%
Structure (SMILES): COc1ccc(F)cc1-c1ccc(N)c(CO)c1 [Compound 186, (4-Amino-5′-fluoro-2′-methoxy-biphenyl-3-yl)-methanol]

IC50 (ASIC1a [1]): < 10 µM
Structure (SMILES): CCN1CCc2c(-c3cc(C)cc(C)c3)cc3c(c2C1)NC(=O)/C3=N/O [Compound 216]

inhibition at 40 µM (ASIC1a [1]; 40 μM): < 25%
Structure (SMILES): CCN(CC)Cc1cc(-c2cc(F)ccc2OC)ccc1NC(=O)N(C)C [Compound 215]

inhibition at 40 µM (ASIC1a [1]; 40 μM): > 50%
Structure (SMILES): CCN1CCc2c(-c3cccc(C)c3C)cc3c(c2C1)NC(=O)/C3=N/O [Compound 217]

% inh. at 40 μM (Flex) (ASIC1a [1]; 40 μM): <25% inhibition at 40 μM (Flex)
Structure (SMILES): CCN(CC)Cc1cc(-c2cc(F)ccc2OC)cc2c1NC(=O)/C2=N/O [Compound 213]

IC50 (ASIC1a [1]): < 10 µM
Structure (SMILES): CCN1CCc2c(-c3cc(C)ccc3C)cc3c(c2C1)NC(=O)/C3=N/O [Compound 218]

IC50 (ASIC1a [1]): < 10 µM
Structure (SMILES): CCN1CCc2c(-c3ccccc3OC)cc3c(c2C1)NC(=O)/C3=N/O [Compound 220]

IC50 (ASIC1a [2]): > 70 µM
inhibition at 100 µM (ASIC1a [3]; 100 μM, read-out: % inh. at 100 μM (Xo)): 30 to 50%
Structure (SMILES): CCOC(=O)N1CCc2c(Br)ccc(N)c2C1 [Compound 160]

IC50 (ASIC1a [2]): > 70 µM
inhibition at 50 µM (ASIC1a [3]): 30 to 50%
Structure (SMILES): CN1CCc2c(-c3ccccc3)cc3c(c2C1)NC(=O)/C3=N/NC(N)=S [Compound 104]

Structure (SMILES): CN1CCc2c(-c3ccccc3)ccc(NC(=O)OC(C)(C)C)c2C1 [Compound 129]
IC50 (ASIC1a [2]): 50 to 70 µM
inhibition at 50 µM (ASIC1a [3]): < 25%

IC50 (ASIC1a [2]): > 70 µM
inhibition at 50 µM (ASIC1a [3]): < 25%
Structure (SMILES): CCOC(=O)CNCc1ccc(-c2ccccc2)c2c1CN(C(=O)OCC)CC2 [Compound 121]
